Data: ChEMBL document CHEMBL4342458, “Reisolation and Configurational Reinvestigation of Cottoquinazolines E-G from an Arthropod-Derived Strain of the Fungus Neosartorya fischeri” (2020)

Columns and labels:
Type in all cases: functional
Escherichia coli = assay: Antibacterial activity against ESBL-producing Escherichia coli ATCC 35218 assessed as reduction in microbial growth after 16 hrs by broth microdilution method; conditions: ATCC 35218, 16 h
Pseudomonas aeruginosa = assay: Antibacterial activity against Pseudomonas aeruginosa ATCC 27853 assessed as reduction in microbial growth after 16 hrs by broth microdilution method; conditions: ATCC 27853, 16 h
Enterococcus faecalis = assay: Antibacterial activity against Enterococcus faecalis ATCC 29212 assessed as reduction in microbial growth after 16 hrs by broth microdilution method; conditions: ATCC 29212, 16 h
Staphylococcus aureus = assay: Antibacterial activity against methicillin-resistant Staphylococcus aureus ATCC 43300 assessed as reduction in microbial growth after 16 hrs by broth microdilution method; conditions: ATCC 43300, 16 h
Klebsiella pneumoniae = assay: Antibacterial activity against Klebsiella pneumoniae ATCC BAA2146 assessed as reduction in microbial growth after 16 hrs by broth microdilution method; conditions: ATCC BAA2146, 16 h
Acinetobacter baumannii = assay: Antibacterial activity against Acinetobacter baumannii ATCC 19606 assessed as reduction in microbial growth after 16 hrs by broth microdilution method; conditions: ATCC 19606, 16 h

SMILES | MIC (Escherichia coli) [µg/mL] | MIC (Pseudomonas aeruginosa) [µg/mL] | MIC (Enterococcus faecalis) [µg/mL] | MIC (Staphylococcus aureus) [µg/mL] | MIC (Klebsiella pneumoniae) [µg/mL] | MIC (Acinetobacter baumannii) [µg/mL]
C[C@@H]1N[C@H]2N(C1=O)c1ccccc1[C@@]21C[C@H]2C(=O)N[C@@H](O1)c1nc3ccccc3c(=O)n12 | ≥ 100 | ≥ 100 | ≥ 100 | ≥ 100 | ≥ 100 | ≥ 100
C[C@@H]1N[C@H]2N(C1=O)c1ccccc1[C@@]21C[C@H]2C(=O)N(C)[C@@H](O1)c1nc3ccccc3c(=O)n12 | 8 | 32 | 16 | ≥ 100 | ≥ 100 | 32
C[C@H]1C(=O)N2c3ccccc3[C@@]3(O)C[C@H]4C(=O)N[C@H](c5nc6ccccc6c(=O)n54)N1[C@@H]23 | ≥ 100 | ≥ 100 | ≥ 100 | ≥ 100 | ≥ 100 | ≥ 100
NCC[C@H](O)C(=O)N[C@@H]1C[C@H](N)[C@@H](O[C@H]2O[C@H](CN)[C@@H](O)[C@H](O)[C@H]2O)[C@H](O)[C@H]1O[C@H]1O[C@H](CO)[C@@H](O)[C@H](N)[C@H]1O [AMIKACIN] | 4 | 2 |  |  | 8 | 2
CO/N=C(\C(=O)N[C@@H]1C(=O)N2C(C(=O)O)=C(CSc3nc(=O)c(O)nn3C)CS[C@H]12)c1csc(N)n1 [CEFTRIAXONE] | 8 | 2 |  |  | 8 | 8
CN[C@H](CC(C)C)C(=O)N[C@H]1C(=O)N[C@@H](CC(N)=O)C(=O)N[C@H]2C(=O)N[C@H]3C(=O)N[C@H](C(=O)N[C@H](C(=O)O)c4cc(O)cc(O)c4-c4cc3ccc4O)[C@H](O)c3ccc(c(Cl)c3)Oc3cc2cc(c3O[C@@H]2O[C@H](CO)[C@@H](O)[C@H](O)[C@H]2O[C@H]2C[C@](C)(N)[C@H](O)[C@H](C)O2)Oc2ccc(cc2Cl)[C@H]1O [VANCOMYCIN] |  |  | 0.5 |  |  | 
